Data: patent publication US5849724A, “Microorganism of genus chrysosporium for use in preparing farnesyl transferase inhibitors” (Rhone-Poulenc Rorer S.A., priority 1995, dated 1998)

Target: T1, farnesyl transferase (Homo sapiens, UniProt P49354+P49356)
T1 construct: This enzyme has been partially purified from human THP1 cells; endogenous in cells; host or cells: human THP1 cells (enzyme partially purified from them)
Test: test for inhibition of farnesyl transferase by scintillation proximity assay (SPA)
Format: biochemical
Settings: partially purified Ftase from human THP1 cells, 60 minutes at 37° C., BLB and 3H FPP substrates
Procedure: The principle of the SPA (Scintillation Proximity Assay) technology is applied to the assay of the enzymatic activity of farnesyl transferase. According to this method, the farnesyl transferase inhibiting activity is determined by the quantity of [^3 H] farnesyl transferred from [^3 H] farnesyl pyrophosphate, ^3 H FPP, to a biotinylated acceptor substrate.
Method used to detect the active metabolites: test for inhibition of farnesyl transferase by scintillation proximity assay (SPA)
The donor substrate, farnesyl pyrophosphate, is labelled with tritium ^3 H FPP. […] The radiolabelled peptide excites the beads which then emit light which is quantified in a solid-liquid scintillation counter (Topcount®, Packard).
The plate is incubated for 60 minutes at 37° C. and the reaction is stopped by adding 150 μl of stopping reagent containing the SPA beads. The plate is sealed with an adhesive film and left for 30 minutes at room temperature in order to reach equilibrium, and then counted in the Topcount counter. […] The IC50 values of the compounds are calculated by nonlinear regression.

Molecule CC(C)C1CCC2C1(C)CCC1(C)C3=CCC4C(C)(C(=O)O)C(O)C(O)C(O)C4(COP(=O)(O)O)C3CCC21C (stereo not shown) [Example 1] has an IC50 of 830 nM.
